The target of one test is T1, HIV-1 RT Y181C (Human immunodeficiency virus type 1 group M subtype B, UniProt P03367, Y780C).
T1 construct: Utilization of mutant RT eraymes (Y181C and Y181L, prepared by site-directed mutagenesis); made in house
Briefly: Reverse Transcriptase (RT) Assay, Y181C mutant enzyme. It is filed as biochemical, Human Immunodeficiency Virus (HIV-1). Conditions: 1 µM compound, read-out: Reverse Transciptase Assay % inhibition (1 µM) Y181C. The source says: (§1) Among the enzymes for which Human Immunodeficiency Virus (HIV-1) encodes is a reverse transcriptase (1), so-named because it transcribes a DNA copy from an RNA template. This activity can be quantitatively measured in a cell-free enzyme assay, which has been previously described (2), and is based upon the observation that reverse transcriptase is able to use a synthetic template [poly r(C) primed with oligo d(G)] to transcribe a radio-labelled, acid-precipitable DNA strand utilizing ^3H-dGTP as a substrate. The assay described below utilizes the wild type (WT) enzyme, which is the predominant form of the enzyme observed in patients infected with HIV-1. Utilization of mutant RT eraymes (Y181C and Y181L, prepared by site-directed mutagenesis in which the tyrosine residue at codon 181 has been replaced by a cysteine or a leucine residue, respectively) and analogous assay conditions allows compounds to be evaluated for their effectiveness at inhibiting these mutant enzymes.
(§2) The 2X concentrated stock reaction mixture is aliquoted and stored at -20°C. The mixture is stable and thawed for use in each assay. This enzyme assay has been adapted to a 96 well microtiter plate system, and has been previously described (6). Tris buffer (50 mM, pH 7.4), vehicle (solvent diluted to match the compound dilution), or compounds in vehicle are dispensed into 96-well microtiter plates (10µL/well; 3 wells/ compound). The HIV-1 RT enzyme is thawed, diluted in 50mM Tris pH 7.4 so that fifteen µL of diluted enzyme contain 0.001 Unit (one unit is that amount of enzyme to transform 1 micromole of substrate per minute at 25°C), and fifteen µL are dispensed per well. Twenty µL of 0.12-0.5M EDTA are added to the first three wells of the microtiter plate. EDTA chelates the Mg^++ present and prevents reverse transcription. This group serves as background polymerization which is subtracted from all other groups. Twenty-five ul of the 2X reaction mixture are added to all wells and the assay is allowed to incubate at room temperature for 60 minutes. The assay is terminated by precipitating the DNA in each well with 50µL of 10% trichloracetic acid (TCA) (10% w/v) in sodium pyrophosphate (1% w/v). The microtiter plate is incubated for 15 minutes at 4°C and the precipitate is fixed onto #30 glass fiber paper (Schleicher & Schuell) using a Skatron semi-automatic harvester. The filters are then washed with additional TCA (5%) containing sodium pyrophosphate (1%), rinsed with aqueous ethanol (70%), dried, and transferred to scintillation vials (6). Each vial receives 2 mL of scintillation cocktail and is counted in a Beckman beta counter. The calculation for percent inhibition is as follows: % inhibition =(CPM Mean Test Value - CPM Mean Control Value X100)/(CPM Mean Control Value) [formula]

The target in the next test is T2, HIV-1 RT Y188L (Human immunodeficiency virus type 1 group M subtype B, UniProt P03367, Y787L).
T2 construct: effective against the reverse transcriptase of many mutant viruses; made in house
Briefly: Reverse Transcriptase (RT) Assay, Y188L mutant enzyme. Conditions: 1 µM compound. It is filed as biochemical, Human Immunodeficiency Virus (HIV-1).

Test [1] deals with HTLV-IIIB strain of HIV-1. Briefly: Syncytia (human T-cell culture) assay. Format: cell-based. Conditions: Human immunodeficiency virus 1, IIIB, 96 h; c8166 cells; read four days after virus challenge. Here is the method: In order to confirm that compounds which are active in the RT Assay also have the ability to inhibit HIV replication in a living system, compounds according to the invention were also tested in the human T-Cell Culture (Syncytia) Assay described below.
Formation of syncytia is a feature of in vitro cultures of CD4+ T-cells infected with HIV-1. In this assay, T-cells are treated with a putative replication inhibiting compound and then infected with HIV-1. After incubation, the culture is checked for the formation of syncytia. The absence or reduction in the number of syncytia is used as a measure of the test compound's ability to inhibit HIV replication.
The target cells, designated c8166, are a subclone of human lymphoma cells of T-cell origin and are established at an initial density of 5x10^4 per 100 ul in RPMI 1640 (+ 10% fetal bovine serum) culture medium in 96 well flat bottom plates. A selected amount of test compound, dissolved in DMSO, is included. After 24 hours, 50-100 TCID50's (the dose that results in induced effect in 50% of test cultures) of the HTLV-IIIB strain of HIV-1 (2) are inoculated into each culture. Control cultures receive compound or virus only. Four days after virus challenge, cultures are visually examined for the frequency and distribution of virus-induced giant cell syncytia. The percent inhibition by the test compound is determined by comparison with control values. Confirmation of the presence or absence of virus replication is accomplished by harvesting the cell free culture fluids from all experimental groups to determine the presence or absence of infectious progeny through the induction of syncytia formation in secondary human T-cell cultures after 3 days.

Test [2] concerns the target T3, HIV-1 RT wild type (WT) enzyme (Human immunodeficiency virus type 1 group M subtype B, UniProt P03367).
T3 construct: Reverse transcriptase enzyme from the LAV strain of Human Immunodeficiency Virus (HIV-1) (1) was isolated from the bacterial strain JM109; made in house; host or cells: E. coli JM109 (clone pBRTprt1+ in vector pIBI21, lac promoter)
Briefly: Reverse Transcriptase (RT) Assay, wild type enzyme (RNA-dependent DNA polymerase activity). It is filed as biochemical, Human Immunodeficiency Virus (HIV-1). Conditions: 1 µM compound, read-out: Reverse Transciptase Assay % inhibition (1 µM) WT.
Description: Utilizing the Reverse Transcriptase (RT) Assay described below, compounds can be tested for their ability to inhibit the RNA-dependent DNA polymerase activity of HIV-1 RT. Certain specific compounds described in the Examples which appear below, were so tested.
as §1
Reverse transcriptase enzyme from the LAV strain of Human Immunodeficiency Virus (HIV-1) (1) was isolated from the bacterial strain JM109 (3) expressing the DNA clone pBRTprt1+ (2) which is under the control of the lac promotor in the expression vector pIBI21 (4). An overnight culture grown in 2XYT medium (37°C, 225 rpm) (5) supplemented with 100 µg/mL ampicillin for positive selection is inoculated at a 1:40 dilution into M9 medium supplemented with 10µg/mL thiamine, 0.5% casamino acids, and 50 µg/mL ampicillin (5). The culture is incubated (37°C, 225 rpm) until it reaches an OD540 of 0.3-0.4. At that time the repressor inhibitor IPTG (isopropyl β-D-thiogalactopyranoside) is added to 0.5mM, and the mixture is incubated for 2 additional hours. Bacteria are pelleted, resuspended in a 50mM Tris, 0.6mM EDTA, 0.375M NaCl buffer and digested by the addition of lysozyme (1mg/mL) for 30 minutes on ice. The cells are lysed by the addition of 0.2% NP-40 and brought to 1M NaCl.
After removal of the insoluble debris by centrifugation, the protein is precipitated by the addition of 3 volumes of saturated aqueous ammonium sulfate. The enzyme is pelleted, resuspended in RT buffer (50mM Tris pH 7.5, 1mM EDTA, 5mM DTT, 0.1% NP-40, 0.1M NaCI, and 50% glycerol), and stored at -70°C for further use.
as §2, with “The filters are then washed with additional TCA (5%) containing sodium pyrophosphate (1%), rinsed with aqueous ethanol (70%), dried, and transferred to scintillation vials (6). Each vial receives 2 mL of scintillation cocktail and is counted in a Beckman beta counter. The calculation for percent inhibition is as follows: % inhibition =(CPM Mean Test Value - CPM Mean Control Value X100)/(CPM Mean Control Value) [formula]” left out

Molecules are shown by their SMILES. pIC50: −log10 of the molar value.

On to `CCN1c2ncccc2C(=O)N(C)c2ccc(-c3ccc[nH]3)nc21` [Example 13, 5,11-Dihydro-11-ethyl-5-methyl-2-(2-pyrrolyl)-6H-dipyrido[3,2-b:2',3'-e][1,4]diazepin-6-one], for which the inhibition at 1 µM is 80% at HIV-1 RT Y181C and 88% in test [2]. At HIV-1 RT Y188L, the “Reverse Transciptase Assay % inhibition (1 µM) Y188L” value came out at 17%. In addition, the pIC50 in test [1] was 6.80.

Source of the values: EP0745083B1, “2-HETEROARYL-5,11-DIHYDRO-6H-DIPYRIDO [3,2-b:2',3'-e][1,4]DIAZEPINES AND THEIR USE IN THE PREVENTION OR TREATMENT OF HIV INFECTION” (BOEHRINGER INGELHEIM PHARMACEUTICALS INC., priority 1994, dated 1995).
